Assay results: the NIST ThermoML archive (doi:10.1016/j.jct.2017.03.040)
± gives the expanded uncertainty stated by the source.

Experiment: mn = molality of the nth substance listed, in mol/kg
Conditions: 100 kPa, Liquid; for speed of sound: Frequency=3 MHz, Single path-length method; for mass density: Vibrating tube method

CCCCCn1cc[n+](C)c1.[Br-] [1-pentyl-3-methylimidazolium bromide] + O
Conditions	mass density, 288.15 K [kg/m3]	mass density, 298.15 K [kg/m3]	mass density, 308.15 K [kg/m3]	mass density, 318.15 K [kg/m3]	speed of sound, 288.15 K [m/s]	speed of sound, 298.15 K [m/s]	speed of sound, 308.15 K [m/s]	speed of sound, 318.15 K [m/s]
m1 = 0.005	999.3 ± 0.3	997.23 ± 0.3	994.23 ± 0.3	990.42 ± 0.3	1467.7 ± 1	1497.3 ± 1	1520.3 ± 1	1536.7 ± 1
m1 = 0.01	999.5 ± 0.3	997.42 ± 0.3	994.42 ± 0.3	990.62 ± 0.3	1468.5 ± 1	1498 ± 1	1520.7 ± 1	1537.4 ± 1
m1 = 0.03	1000.31 ± 0.3	998.19 ± 0.3	995.2 ± 0.3	991.41 ± 0.3	1470.8 ± 1	1500.3 ± 1	1522.5 ± 1	1539.1 ± 1
m1 = 0.05	1001.11 ± 0.3	998.96 ± 0.3	995.98 ± 0.3	992.21 ± 0.3	1473.7 ± 1	1502.8 ± 1	1524.6 ± 1	1541 ± 1

N[C@@H](CS)C(=O)O [(R)-2-amino-3-mercaptopropanoic acid] + O
Conditions	mass density, 288.15 K [kg/m3]	mass density, 298.15 K [kg/m3]	mass density, 308.15 K [kg/m3]	mass density, 318.15 K [kg/m3]	speed of sound, 288.15 K [m/s]	speed of sound, 298.15 K [m/s]	speed of sound, 308.15 K [m/s]	speed of sound, 318.15 K [m/s]
m1 = 0.09747	1003.7 ± 0.3	1001.64 ± 0.3	998.63 ± 0.3	994.82 ± 0.3	1474 ± 1	1503.6 ± 1	1525.8 ± 1	1541.9 ± 1
m1 = 0.1985	1008.47 ± 0.31	1006.41 ± 0.31	1003.4 ± 0.31	999.59 ± 0.31	1481.8 ± 1	1510.9 ± 1	1532.2 ± 1	1547.8 ± 1
m1 = 0.2986	1013.2 ± 0.31	1011.13 ± 0.31	1008.12 ± 0.31	1004.32 ± 0.31	1489.5 ± 1	1518 ± 1	1538.6 ± 1	1553.6 ± 1
m1 = 0.3968	1017.83 ± 0.31	1015.77 ± 0.31	1012.76 ± 0.31	1008.96 ± 0.31	1497.1 ± 1	1525.1 ± 1	1544.9 ± 1	1559.3 ± 1
m1 = 0.4932	1022.38 ± 0.32	1020.32 ± 0.32	1017.31 ± 0.32	1013.51 ± 0.32	1504.5 ± 1	1532 ± 1	1551 ± 1	1564.8 ± 1
m1 = 0.6	1027.42 ± 0.33	1025.36 ± 0.33	1022.35 ± 0.33	1018.55 ± 0.33	1512.7 ± 1	1539.6 ± 1	1557.8 ± 1	1571 ± 1
m1 = 0.6922	1031.77 ± 0.34	1029.71 ± 0.34	1026.7 ± 0.34	1022.9 ± 0.34	1519.8 ± 1	1546.2 ± 1	1563.6 ± 1	1576.4 ± 1
